In patent publication US20010005714A1, “AMPHIPATHIC MOLECULES AS CHOLESTEROL AND OTHER LIPID UPTAKE INHIBITORS” (priority 1996, published 2001):

How the values were obtained:
[1] = tested on: BBMVs; experiment: Inhibition of cholesteryl oleate uptake by BBMVs by peptides of varying lengths (Example 8); format: biochemical; conditions: 120 μg peptide/ml
Procedure: going from one peptide to the other (top→bottom) 3 amino acids were removed from the N-terminus. The inhibitory effect of the four peptides listed above were compared at 120 μg peptide/ml. The lipid uptake by BBMVs was measured in the presence of 120 μg peptide/ml each as described below.
Donor and acceptor particles dispersed in Tris/NaCl buffer were centrifuged in a Beckman airfuge at 115000 g is for 2 min at 4° C. The dispersion of the acceptor yielded a pellet which was resuspended in Tris/NaCl buffer. Varying amounts of inhibitor dissolved in the same buffer were added to the acceptor dispersion and at time zero the dispersiorn of acceptor with or without inhibitor was mixed with the top 80% of the supernatant obtained by centrifugation of the donor dispersion. The final concentration of the donor was 0.05 mg total lipid/ml and that of the acceptor was 5 mg protein/ml. The resulting dispersion was incubated at 23° C. and after timed intervals the sterol uptake was stopped by dilution of the incubation medium with 2 volumes of Tris/NaCl buffer. BBMV were separated from the donor by centrifugation in the Beckman airfuge at 115000 g for 2 min at 4° C. The radioactivities in the supernatant containing the donor and in the pellet containing the BBMV (acceptor) were determined in a Beckman LS 7500 scintillation counter.

[2] = tested on: abetalipoproteinemic BBMV; experiment: [14C]Cholesterol uptake from egg PC vesicles by abetalipoproteinemic BBMV; format: biochemical, human; conditions: donor egg PC vesicles 0.01 mg lipid/ml, acceptor abetalipoproteinemic BBMV 0.25 mg lipid/ml; read-out: Inhibition IC50: concentration required to reduce protein-mediated cholesterol uptake by 50%
Procedure: (§1) Biopsy samples from human duodenum, 20 to 30 mg of wet tissue each, were suspended in 200 μl buffer (12 mM Tris HCl pH 7.2, 300 mM mannitol, 5 mM EGTA, 1 mM phenylmethylsulfonyl fluoride), frozen in liquid nitrogen and stored at −80° C. prior to use. BBMV were prepared by Mg^+2 precipitation (Hauser et al, Biochim. Biophys. Acta 602 567-577 (1980)) as described in detail by Booth et al (Lancet 1 1066-1069 (1985)). Proteinase K treatment of the BBMV was carried out according to Thurnhofer and Hauser (Biochim. Biophys. Acta 1024 249-262 (1990)). […] Small unilamellar phesrholipid vesicles were prepared by tip sonication (Schulthess, Biochemistry 33 4500-4508 (1994)). […]
(§2) Kinetic measurements were also carried out in the presence of inhibitors; synthetic peptides or apolipoproteins were added to the […] of donor and acceptor vesicles. Cholesterol uptake by native and proteinase K treated BBMV was determined in the presence of increasing concentrations of Ac-18A-NH2, the difference between cholesterol uptake by native and proteinase K treated BBMV is referred as protein-mediated cholesterol uptake in FIG. 6. The IC50 values were determined according to Methods Enzymol. […]

[3] = [14C]Cholesterol transfer from egg PC vesicles to egg PC/egg PA vesicles; format: biochemical
Procedure: (II) Similarly, egg PC small unilamellar vesicles containing 1 mol % [^14C] cholesterol as the donor and small unilamellar vesicles of egg PC/egg PA (85:15, mole ratio) as the acceptor were incubated at room temperature. After timed intervals aliquots of the incubation mixture were filtered through DEAE Sepharose C1-CB columns, which retained the negatively charged vesicles. Pure egg PC vesicles were eluted and their radioactivity determined.
(§3) Kinetic measurements were also carried out in the presence of inhibitors; synthetic peptides or apolipoproteins were added to the […] of donor and acceptor vesicles. Cholesterol uptake by native and proteinase K treated BBMV was determined in the presence of increasing concentrations of Ac-18A-NH2, the difference between cholesterol uptake by native and proteinase K treated BBMV is referred as protein-mediated cholesterol uptake in FIG. 6. The IC50 values were determined according to Methods Enzymol. 37 3-22 (1975).

[4] = tested on: normal human BBMV; experiment: [14C]Cholesterol uptake from egg PC vesicles by normal human duodenal BBMV; format: biochemical
Procedure: Biopsy samples from human duodenum, 20 to 30 mg of wet tissue each, were suspended in 200 μl buffer (12 mM Tris HCl pH 7.2, 300 mM mannitol, 5 mM EGTA, 1 mM phenylmethylsulfonyl fluoride), frozen in liquid nitrogen and stored at −80° C. prior to use. BBMV were prepared by Mg^+2 precipitation (Hauser et al, Biochim. Biophys. Acta 602 567-577 (1980)) as described in detail by Booth et al (Lancet 1 1066-1069 (1985)). Proteinase K treatment of the BBMV was carried out according to Thurnhofer and Hauser (Biochim. Biophys. Acta 1024 249-262 (1990)). […] Small unilamellar phesrholipid vesicles were prepared by tip sonication (Schulthess, Biochemistry 33 4500-4508 (1994)).
(I) Egg PC small unilamellar vesicles containing […] (^14C] cholesterol and BBMV both dispersed in 10 mM Tris-HCl pH 7.2, 0.15 M NaCl, 5 mM EDTA were incubated at room temperature. After timed intervals phospholipid vesicles and BBMV were separated by centrifugation at 115000 g for 2 min in a Beckman airfuge. The radioactivities present in pellet and supernatant were determined by counting aliquots in a Beckman LS 7500 liquid scintillatior counter. Fusion of egg PC small unilamellar vesicles and BBMV as a possible mechanism of cholesterol uptake was ruled out as discussed in detail in previous studies (Thurnhofer and Hauser, Biochemistry 29 2142-2148 (1990); Compassi, Biochemistry 34 16473-16482 (1995) and Schulthess, J. Lipid. Res. 37 2405-2419 (1996)).
The experimental data were computer-fitted using the following equation valid for single-exponential exchange reactions: X=X∞+[XO−X∞]e^-k1^[(a+b)/a]t, where XO, X and X∞represent the fractions of the labelled lipid in the donor at times 0, t and at equilibrium, respectively. K1 is the pseudo-first-order rate constant of the reaction and a and b are the lipid pools of acceptor and donor, respectively (McKay, Nature 142 997-998 (1938) and Mutsch et al, Biochemistry 25 2134-2140 (1986).
as §3

[5] = tested on: brush border membrane vesicles (BBMV); experiment: IC50 of cholesteryl oleate uptake at the brush border membrane (Example 6); format: biochemical, rabbit; conditions: donor 0.1 mg total lipid/ml, acceptor 2 mg protein/ml; 20 min at 25° C.
Procedure: An appropriate amount of inhibitor dissolved in 84.5 μl buffer (0.05 M Tris pH 7.4, 0.15 M NaCl) is mixed in an Eppendorf tube at time zero with 5 μl of a dispersion of donor and 10.5 μl of a dispersion of acceptor (i.e. brush border membrane vesicles (BBMV)) in the same buffer. The final concentration of the donor vesicles was 0.1 mg total lipid/ml, that of the acceptor was 2 mg protein/ml. The resulting mixture was incubated for 20 min at 25° C., and the reaction was stopped by adding 60 μl of the incubation medium to 120 μl ice-cold bufferin an airfuge tube. The diluted dispersion was immediately centrifuiaed in the airfuge at […] for 2 min. at 4° C. to separate donor vesicles from BBMV. Two 60 μl aliquots of the donor (=supernatant) were counted in a Beckman LS-7500 liquid scintillating counter to determine the radioactivity remaining in tbe donor.
Small unilamellar egg phosphatidycholine (PC) vesicles containing 1 mol % of cholesterol oleate and a trace amount of ^3H-cholesterol oleyl ether were made by dissolving the appropriate amounts of the lipids in CHCl3/CH3OH, (2:1, by vol.), taking the solution to dryness on a rotary evaporator and drying the residue in vacuo. The dried lipid film was dispersed in the appropriate volume of buffer by hand-shaking. The lipid dispersion was subjected to tip sonication as described in Brunner et al, J. Biol. Chem. 253 7538-7546 (1978). The resulting donor dispersion in buffer was centrifuged in the airfuge at 100000 g for 2 min at […]. Only the top 80% of the donor dispersion after centrifugation was used in the lipid uptake experiment.
BBMV were prepared from frozen rabbit small intestine according to Hauser et al (Biochim. Biophys. Acta 602 567-577 (1980)). Prior to use in the uptake experiment determining IC50 values the BBMV were washed to remove any free protein liberated from the BBM. To this end the BBMV dispersion was diluted with buffer 1:1 in an airfuge tube, and the diluted dispersion was centrifuged in the airfuga at 100000 g for 2 min at […]. The supernatant was is carefully decanted, the pellet was resuspended in buffer to the original volume of the BBMV dispersion, and the dispersion was homogenized. […]

[6] = molecular target: proteinase K-treated normal BBMV; experiment: [14C]Cholesterol uptake from egg PC vesicles by proteinase K-treated normal BBMV; format: biochemical, human
Procedure: as §1, §2

Ac-Asp-Trp-Leu-Lys-Alα-Phe-Tyr-Asp-Lys-Val-Alα -Glu-Lys-Leu-Lys-Glu-Alα-Phe-NH2 [Ac-18A-NH2, amphipathic α-helix of class A peptide, N-acetylated and C-amidated 18A]
inhibitory effect on cholesteryl oleate uptake (in words, footnote) [1]: Useful inhibitory effect is seen with Peptides Nos. 1 and 2. | Inhibition of Cholesteryloleate Uptake In. % ([1]; donor 0.05 mg total lipid/ml, acceptor 5 mg protein/ml, 23° C.): 100% | IC50 [2]: 23 ± 3 µM | inhibitory effect on cholesterol transfer between phospholipid vesicles (in words) [3]: no inhibitory effect | Inhibition IC50 ([3]; donor egg PC vesicles 0.01 mg lipid/ml, acceptor egg PC/egg PA vesicles 0.25 mg lipid/ml): no inhibition | effect on passive cholesterol transfer (in words) [4]: no inhibitory effect | half time of residual cholesterol uptake by native BBMV not inhibited by the peptide ([4]; 60 μM Ac-18A-NH2): 6.7 ± 1.4 h | IC50 ([4]; donor egg PC vesicles 0.01 mg lipid/ml, acceptor normal human BBMV 0.25 mg lipid/ml, 20 min, read-out: Inhibition IC50: concentration required to reduce protein-mediated cholesterol uptake by 50%): 23 ± 1 µM | inhibition of protein-mediated cholesterol uptake (in words) ([4]; human duodenal BBMV): effectively and completely inhibited | IC50 [5]: 16 ± 1 µM | IC50 (μg/mL) of cholesteryl oleate uptake at the brush border membrane [5]: 35 ± 2 µg/mL | Inhibition IC50 ([6]; donor egg PC vesicles 0.01 mg lipid/ml, acceptor proteinase K-treated normal BBMV 0.25 mg lipid/ml): no inhibition | inhibitory effect on cholesterol uptake (in words) ([6]; proteinase K-treated BBMV): no inhibitory effect
